According to patent US20240279201A1, “DUAL WNT SIGNALING PATHWAY INHIBITORS AND AMPK ACTIVATORS FOR TREATMENTS OF DISEASE” (priority 2021, published 2024):

Legend:
[1] = Cytotoxicity (CC50) during the luciferase gene reporter assay; type: cell-based; conditions: human, HEK293 cells; short treatment duration of the luciferase gene reporter assay
[2] = tested on: Wnt/β-Catenin signaling pathway; test: Wnt signaling luciferase (TOPflash) reporter gene assay; type: cell-based; conditions: for IC50: luciferase reporter gene assay, mean of three independent experiments, read-out: IC50 (nM) to inhibit the Wnt signaling activity
Source text: A dual-luciferase gene reporter assay was used to test inhibitory activities of new compounds on Wnt signaling. […] Therefore, the effects of new compounds on AMPK was examined. […]

Row | IC50 [2] | Structure (SMILES) | CC50 [1] | inhibition at 1 µM [2]
1 | 251 nM | CC(C)(C)c1c(C(=O)Nc2nc3ccccc3s2)nnn1-c1ccccc1F [YA6176, N-(Benzo[d]thiazol-2-yl)-5-(tert-butyl)-1-(2-fluorophenyl)-1H-1,2,3-triazole-4-carboxamide] | > 92000 nM | 58%
2 | > 1000 nM | Cc1ccccc1-n1nnc(C(=O)Nc2ccc3cccc(Br)c3n2)c1C [YA6146, N-(8-Bromoquinolin-2-yl)-5-methyl-1-(o-tolyl)-1H-1,2,3-triazole-4-carboxamide] | > 92000 nM | –
3 | 3.3 nM | Cc1cccc(F)c1-n1nnc(C(=O)Nc2nc3ccccc3s2)c1C [YA1042, N-(Benzo[d]thiazol-2-yl)-1-(2-fluoro-6-methylphenyl)-5-methyl-1H-1,2,3-triazole-4-carboxamide] | > 92000 nM | 92%
4 | 0.15 nM | Cc1c(C(=O)Nc2cnc3ccccc3n2)nnn1-c1ccccc1F [YA6138, 1-(2-Fluorophenyl)-5-methyl-N-(quinoxalin-2-yl)-1H-1,2,3-triazole-4-carboxamide] | > 92000 nM | –
5 | 0.9 nM | Cc1c(C(=O)Nc2nc3ccccc3s2)cnn1-c1c(F)cccc1F [YA4019, N-(benzo[d]thiazol-2-yl)-1-(2,6-difluorophenyl)-5-methyl-1H-pyrazole-4-carboxamide] | > 92000 nM | –
6 | > 1000 nM | Cc1ccccc1-n1nnc(C(=O)Nc2nc3c(Cl)cccc3s2)c1C [YA4095, N-(4-Chlorobenzo[d]thiazol-2-yl)-5-methyl-1-(o-tolyl)-1H-1,2,3-triazole-4-carboxamide] | > 92000 nM | 8%
7 | 16 nM | Cc1ccccc1-n1nnc(C(=O)Nc2nc3cc(F)ccc3s2)c1C [YA4101, N-(5-Fluorobenzo[d]thiazol-2-yl)-5-methyl-1-(o-tolyl)-1H-1,2,3-triazole-4-carboxamide] | > 92000 nM | –
8 | 7.82 nM | Cc1c(C(=O)Nc2nc3ccccc3s2)nnn1-c1ccccc1 [YA6029, N-(Benzo[d]thiazol-2-yl)-5-methyl-1-phenyl-1H-1,2,3-triazole-4-carboxamide] | > 92000 nM | 81%
9 | > 1000 nM | Cc1ccc(-c2csc(NC(=O)c3nnn(-c4ccccc4C)c3C)n2)cc1 [YA4141] | > 92000 nM | –
10 | > 1000 nM | Cc1c(C(=O)Nc2nc3ccccc3s2)nnn1-c1ccccc1OC(F)(F)F [YA1038, N-(Benzo[d]thiazol-2-yl)-5-methyl-1-(2-(trifluoromethoxy)phenyl)-1H-1,2,3-triazole-4-carboxamide] | > 92000 nM | 37%
11 | > 1000 nM | Cc1ccccc1-n1nnc(C(=O)Nc2cnc3ccccc3c2)c1C [YA6161, 5-Methyl-N-(quinolin-3-yl)-1-(o-tolyl)-1H-1,2,3-triazole-4-carboxamide] | > 92000 nM | –
12 | > 1000 nM | Cc1ccccc1-n1nnc(C(=O)Nc2ccc3cccnc3c2)c1C [YA6162, 5-Methyl-N-(quinolin-7-yl)-1-(o-tolyl)-1H-1,2,3-triazole-4-carboxamide] | > 92000 nM | –
13 | > 1000 nM | Cc1ccccc1-c1csc(NC(=O)c2nnn(-c3ccccc3C)c2C)n1 [YA4171] | > 92000 nM | –
14 | 470 nM | O=C(Nc1nc2ccccc2s1)c1csc(-c2ccccc2)n1 [YA6082] | > 92000 nM | 70%
15 | 220 nM | Cc1c(C(=O)Nc2ncc(-c3ccccc3)s2)cnn1-c1ccccc1Br [YA6152, 1-(2-Bromophenyl)-5-methyl-N-(5-phenylthiazol-2-yl)-1H-pyrazole-4-carboxamide] | > 92000 nM | –
16 | > 1000 nM | O=C(Nc1ccc2ccccc2n1)c1nnn(-c2ccccc2F)n1 [YA70032, 2-(2-Fluorophenyl)-N-(quinolin-2-yl)-2H-tetrazole-5-carboxamide] | > 92000 nM | –

Continued, compound first:

Row | Structure (SMILES) | IC50 [2] | CC50 [1] | inhibition at 1 µM [2]
17 | Cc1ccccc1-n1nnc(C(=O)Nc2nc(-c3ccccc3)c(-c3ccccc3)s2)c1C [YA4133, N-(4,5-Diphenylthiazol-2-yl)-5-methyl-1-(o-tolyl)-1H-1,2,3-triazole-4-carboxamide] | > 1000 nM | > 92000 nM | 49%
18 | CC(C)c1c(C(=O)Nc2nc3ccc(F)cc3s2)nnn1-c1ccccc1F [YA6172, N-(6-Fluorobenzo[d]thiazol-2-yl)-1-(2-fluorophenyl)-5-isopropyl-1H-1,2,3-triazole-4-carboxamide] | 7.6 nM | > 92000 nM | 98%
19 | COc1ccc2sc(NC(=O)c3nnn(-c4ccccc4C)c3C)nc2c1 [YA4045, N-(5-Methoxybenzo[d]thiazol-2-yl)-5-methyl-1-(o-tolyl)-1H-1,2,3-triazole-4-carboxamide] | > 1000 nM | > 92000 nM | –
20 | COc1ccccc1-n1nnc(C(=O)Nc2ccc3ccccc3n2)n1 [YA70034, 2-(2-Methoxyphenyl)-N-(quinolin-2-yl)-2H-tetrazole-5-carboxamide] | > 1000 nM | > 92000 nM | –
21 | Cc1c(C(=O)Nc2nc(-c3ccccc3)cs2)cnn1-c1ccccc1Br [YA4087, 1-(2-Bromophenyl)-5-methyl-N-(4-phenylthiazol-2-yl)-1H-pyrazole-4-carboxamide] | > 1000 nM | > 92000 nM | –
22 | Cc1ccccc1-n1nnc(C(=O)Nc2ccc3cccnc3n2)c1C [YA6047, 5-Methyl-N-(1,8-naphthyridin-2-yl)-1-(o-tolyl)-1H-1,2,3-triazole-4-carboxamide] | > 1000 nM | > 92000 nM | –
23 | O=C(Nc1nc2ccc(F)cc2s1)c1nnn(-c2ccccc2F)c1C(F)(F)F [YA6175, N-(6-Fluorobenzo[d]thiazol-2-yl)-1-(2-fluorophenyl)-5-(trifluoromethyl)-1H-1,2,3-triazole-4-carboxamide] | 17 nM | > 92000 nM | 85%
24 | Cc1ccccc1-n1nnc(C(=O)Nc2nc3ccc(C(F)(F)F)cc3s2)c1C [YA4063, 5-Methyl-1-(o-tolyl)-N-(6-(trifluoromethyl)benzo[d]thiazol-2-yl)-1H-1,2,3-triazole-4-carboxamide] | > 1000 nM | > 92000 nM | 24%
25 | Cc1ccccc1-n1nnc(C(=O)Nc2cc(CN3CCN(C(=O)OC(C)(C)C)CC3)c3ccccc3n2)c1C [YA6159, tert-Butyl 4-((2-(5-methyl-1-(o-tolyl)-1H-1,2,3-triazole-4-carboxamido)quinolin-4-yl)methyl)piperazine-1-carboxylate] | > 1000 nM | > 92000 nM | –
26 | Cc1c(C(=O)Nc2nc3ccccc3s2)cnn1-c1c(F)cccc1Br [YA4017, N-(Benzo[d]thiazol-2-yl)-1-(2-bromo-6-fluorophenyl)-5-methyl-1H-pyrazole-4-carboxamide] | 8.2 nM | > 92000 nM | –
27 | O=C(Nc1nc2ccccc2s1)c1nnn(-c2ccccc2F)c1C(F)(F)F [YA6168, N-(Benzo[d]thiazol-2-yl)-1-(2-fluorophenyl)-5-(trifluoromethyl)-1H-1,2,3-triazole-4-carboxamide] | 3.3 nM | > 92000 nM | 91%
28 | Cc1ccc(-n2nnc(C(=O)Nc3nc4ccccc4s3)c2C)c(C)c1 [YA4039] | 17 nM | > 92000 nM | 88%
29 | Cc1ccccc1-n1nnc(C(=O)Nc2nc(-c3ccccc3F)cs2)c1C [YA4143] | > 1000 nM | > 92000 nM | –
30 | Cc1ccccc1-n1nnc(C(=O)Nc2nc3ccc(Cl)cc3s2)c1C [YA4071, N-(6-Chlorobenzo[d]thiazol-2-yl)-5-methyl-1-(o-tolyl)-1H-1,2,3-triazole-4-carboxamide] | 67 nM | > 92000 nM | –
31 | Cc1c(C(=O)Nc2nc3ccccc3s2)cnn1-c1ccccc1Cl [YA4025, N-(Benzo[d]thiazol-2-yl)-1-(2-chlorophenyl)-5-methyl-1H-pyrazole-4-carboxamide] | 0.4 nM | > 92000 nM | –
32 | COc1ccc2nc(NC(=O)c3nnn(-c4ccccc4C)c3C)sc2c1 [YA4091, N-(6-Methoxybenzo[d]thiazol-2-yl)-5-methyl-1-(o-tolyl)-1H-1,2,3-triazole-4-carboxamide] | > 1000 nM | > 92000 nM | 12%
33 | Cc1ccccc1-n1nnc(C(=O)Nc2nc3cc(Br)ccc3s2)c1C [YA4047, N-(5-Bromobenzo[d]thiazol-2-yl)-5-methyl-1-(o-tolyl)-1H-1,2,3-triazole-4-carboxamide] | > 1000 nM | > 92000 nM | 14%
34 | Cc1ccc2nc(NC(=O)c3nnn(-c4ccccc4C)c3C)sc2c1 [YA4069, 5-Methyl-N-(6-methylbenzo[d]thiazol-2-yl)-1-(o-tolyl)-1H-1,2,3-triazole-4-carboxamide] | 15 nM | > 92000 nM | –
35 | Cc1ccccc1-n1nnc(C(=O)Nc2ccc3cc(B4OC(C)(C)C(C)(C)O4)ccc3n2)c1C [YA6063] | 148 nM | > 92000 nM | –
36 | Cc1c(C(=O)Nc2nc3ccccc3s2)nnn1-c1ccc(F)cc1 [YA1076, N-(Benzo[d]thiazol-2-yl)-1-(4-fluorophenyl)-5-methyl-1H-1,2,3-triazole-4-carboxamide] | > 1000 nM | > 92000 nM | 15%
37 | Cc1ccccc1-n1nnc(C(=O)Nc2cccc3cccnc23)c1C [YA6055, 5-Methyl-N-(quinolin-8-yl)-1-(o-tolyl)-1H-1,2,3-triazole-4-carboxamide] | > 1000 nM | > 92000 nM | –
38 | Cc1ccccc1-n1nnc(C(=O)Nc2ccc3c(Br)cccc3n2)c1C [YA6167, N-(5-Bromoquinolin-2-yl)-5-methyl-1-(o-tolyl)-1H-1,2,3-triazole-4-carboxamide] | > 1000 nM | > 92000 nM | –
39 | Cc1ccccc1-n1nnc(C(=O)Nc2ccc3cnccc3c2)c1C [YA61692, N-(Isoquinolin-6-yl)-5-methyl-1-(o-tolyl)-1H-1,2,3-triazole-4-carboxamide] | > 1000 nM | > 92000 nM | –
